Test results from PMC13079941 (Proceedings of the National Academy of Sciences of the …, 2026).

Biological target: T1, CsRD21a (Citrus sinensis, UniProt A0ACB8KUT6)
T1 construct: gene KPL71_016607; full-length, untagged, expressed transiently in Nicotiana benthamiana; secreted, prodomain removed in planta, active forms 25-35 kDa; concentrated apoplastic fluid, not purified
Assay: competitive activity-based protein profiling, DCG-04 / streptavidin-HRP blot
Format: biochemical
Settings: apoplastic fluid; 30 min preincubation; 50 mM sodium acetate pH 5.0, 5 mM DTT, room temperature

T1 sequence (A0ACB8KUT6 139-468): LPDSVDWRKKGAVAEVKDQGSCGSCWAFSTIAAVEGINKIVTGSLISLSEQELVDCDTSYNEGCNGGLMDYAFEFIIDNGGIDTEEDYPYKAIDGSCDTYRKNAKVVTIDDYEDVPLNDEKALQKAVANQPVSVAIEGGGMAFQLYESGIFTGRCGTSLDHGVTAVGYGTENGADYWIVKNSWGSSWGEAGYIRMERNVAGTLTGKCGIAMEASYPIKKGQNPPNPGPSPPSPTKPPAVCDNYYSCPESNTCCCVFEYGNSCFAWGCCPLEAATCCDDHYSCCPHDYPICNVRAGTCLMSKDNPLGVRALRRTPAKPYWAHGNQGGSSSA

## CC(C)C[C@H](NC(=O)[C@H]1O[C@@H]1C(=O)O)C(=O)NCCCCNC(=N)N [E-64]
  decrease of DCG-04 labelling, dosage-dependent: This signal decreased in the presence of the cysteine protease inhibitor E-64 in a dosage-dependent manner
